Measurements as given in ChEMBL document CHEMBL3885861, “Open TG-GATES”.

Species: Rattus norvegicus
Assay: Open TG-GATES - Regimen: Single
Assay type: toxicity, organism-based, Sprague-Dawley
Set-up: regimen Single, gender Male, age 6 weeks
Details: in vivo, po, route gavage; for APTT / Bas / Eos / Fbg / Hb / Ht / Lym / MCHC / MCV / Mono / PT / Plat / RBC / Ret / WBC / Neu: tissue Blood; for KIDNEY_L / KIDNEY_R / KIDNEY_TOTAL: tissue Kidney; for LIVER: tissue Liver; for ALP / ALT / AST / BUN / CRE / Ca / Cl / DBIL / IP / LDH / Na / PL / RALB / TBIL / TC / TG / TP / gamma-GTP / GLC: tissue Plasma
[1] = 0 mg/kg, 3 h, dose level Control
[2] = 0 mg/kg, 6 h, dose level Control
[3] = 0 mg/kg, 9 h, dose level Control
[4] = 0 mg/kg, 24 h, dose level Control
[5] = 120 mg/kg, 3 h, dose level Middle

## CC(C)N(CCC(C(N)=O)(c1ccccc1)c1ccccn1)C(C)C (stereo not drawn) [DISOPYRAMIDE]
[1]
  TERMINAL_BW: 207.1 g
  APTT: 21.7 s
  Bas: 0%
  Eos: 1%
  Fbg: 318.8 mg/dL
  Hb: 13.2 g/dL
  Ht: 41.1%
  Lym: 77.6%
  MCHC: 32.1%
  MCV: 64.4 fL
  Mono: 2.6%
  PT: 15.8 s
  Plat: 117.3 x10_4/uL
  RBC: 638.6 x10_4/ul
  Ret: 8%
  WBC: 84.7 x10_2/uL
  KIDNEY_L: 0.9 g
  KIDNEY_R: 0.9 g
  KIDNEY_TOTAL: 1.9 g
  LIVER: 9.6 g
  ALP: 1747.4 IU/L
  ALT: 51 IU/L
  AST: 79.8 IU/L
  BUN: 12.4 mg/dL
  CRE: 0.2 mg/dL
  Ca: 10.5 mg/dL
  Cl: 108.2 meq/L
  DBIL: 0 mg/dL
  IP: 8.5 mg/dL
  LDH: 193.8 IU/L
  Na: 141.8 meq/L
  PL: 122.6 mg/dL
  RALB: 2.9 g/dL
  TBIL: 0.006 mg/dL
  TC: 69 mg/dL
  TG: 45.4 mg/dL
  TP: 5.4 g/dL
  gamma-GTP: 1.4 IU/L
[2]
  TERMINAL_BW: 210.2 g
  APTT: 22.4 s
  Bas: 0%
  Eos: 0.4%
  Fbg: 310.2 mg/dL
  Ht: 39.9%
  Lym: 80.8%
  MCHC: 32%
  MCV: 64.8 fL
  Mono: 2.6%
  PT: 15.7 s
  Plat: 122.8 x10_4/uL
  RBC: 615.4 x10_4/ul
  Ret: 7.8%
  WBC: 110.6 x10_2/uL
  KIDNEY_L: 1 g
  KIDNEY_R: 1 g
  KIDNEY_TOTAL: 1.9 g
  LIVER: 9.3 g
  ALT: 42.4 IU/L
  AST: 73.2 IU/L
  BUN: 13 mg/dL
  CRE: 0.1 mg/dL
  Ca: 10.8 mg/dL
  Cl: 105.6 meq/L
  DBIL: 0 mg/dL
  IP: 9.3 mg/dL
  LDH: 164.8 IU/L
  Na: 140.6 meq/L
  PL: 135 mg/dL
  RALB: 2.9 g/dL
  TBIL: 0.004 mg/dL
  TC: 72.6 mg/dL
  TG: 91 mg/dL
  TP: 5.5 g/dL
  gamma-GTP: 1.2 IU/L
[3]
  TERMINAL_BW: 204.9 g
  APTT: 22.5 s
  Bas: 0%
  Eos: 0.4%
  Fbg: 300.8 mg/dL
  Hb: 12.9 g/dL
  Ht: 40%
  Lym: 80.6%
  MCHC: 32.3%
  MCV: 62.7 fL
  Mono: 2.6%
  PT: 15.9 s
  Plat: 113.2 x10_4/uL
  RBC: 638.2 x10_4/ul
  Ret: 7.5%
  WBC: 90.9 x10_2/uL
  KIDNEY_L: 1 g
  KIDNEY_R: 1 g
  KIDNEY_TOTAL: 2 g
  LIVER: 8.8 g
  ALP: 1336.4 IU/L
  ALT: 41.6 IU/L
  AST: 72.8 IU/L
  BUN: 13.4 mg/dL
  CRE: 0.1 mg/dL
  Ca: 10.5 mg/dL
  Cl: 106.6 meq/L
  DBIL: 0.002 mg/dL
  IP: 9.2 mg/dL
  LDH: 146.8 IU/L
  Na: 141.6 meq/L
  PL: 116.8 mg/dL
  RALB: 2.9 g/dL
  TBIL: 0.002 mg/dL
  TC: 62.4 mg/dL
  TG: 61.4 mg/dL
  TP: 5.4 g/dL
  gamma-GTP: 1.2 IU/L
[4]
  TERMINAL_BW: 222.5 g
  APTT: 21.9 s
  Bas: 0%
  Eos: 1%
  Fbg: 317 mg/dL
  Hb: 13.2 g/dL
  Ht: 40.9%
  Lym: 82.6%
  MCHC: 32.3%
  MCV: 65 fL
  Mono: 2.4%
  PT: 16 s
  Plat: 117 x10_4/uL
  RBC: 629.4 x10_4/ul
  Ret: 7.9%
  WBC: 80.5 x10_2/uL
  KIDNEY_L: 1 g
  KIDNEY_R: 1 g
  KIDNEY_TOTAL: 2 g
  LIVER: 10.6 g
  ALP: 1631 IU/L
  ALT: 53.6 IU/L
  AST: 78.6 IU/L
  BUN: 17 mg/dL
  CRE: 0.2 mg/dL
  Ca: 10.7 mg/dL
  Cl: 105 meq/L
  DBIL: 0 mg/dL
  IP: 7.8 mg/dL
  LDH: 192.4 IU/L
  PL: 143.2 mg/dL
  RALB: 3 g/dL
  TBIL: 0 mg/dL
  TC: 71.8 mg/dL
  TG: 104 mg/dL
  TP: 5.5 g/dL
  gamma-GTP: 2 IU/L
40 mg/kg, 3 h, dose level Low
  TERMINAL_BW: 208.4 g
  APTT: 23 s
  Bas: 0%
  Eos: 1%
  Fbg: 313.4 mg/dL
  Hb: 13 g/dL
  Ht: 40.8%
  Lym: 79.6%
  MCHC: 32%
  MCV: 64.4 fL
  Mono: 2.6%
  Neu: 15.8%
  PT: 15.5 s
  Plat: 122.4 x10_4/uL
  RBC: 633.6 x10_4/ul
  Ret: 8.2%
  WBC: 102.4 x10_2/uL
  KIDNEY_L: 0.9 g
  KIDNEY_R: 1 g
  KIDNEY_TOTAL: 1.9 g
  LIVER: 9.9 g
  ALP: 1280.4 IU/L
  ALT: 48.2 IU/L
  AST: 73.2 IU/L
  BUN: 10.6 mg/dL
  CRE: 0.2 mg/dL
  Ca: 10.7 mg/dL
  Cl: 107.4 meq/L
  DBIL: 0 mg/dL
  IP: 8.5 mg/dL
  LDH: 163.4 IU/L
  Na: 140.8 meq/L
  PL: 143.2 mg/dL
  RALB: 3 g/dL
  TBIL: 0.002 mg/dL
  TC: 82.4 mg/dL
  TG: 60.6 mg/dL
  TP: 5.5 g/dL
  gamma-GTP: 1.6 IU/L
40 mg/kg, 6 h, dose level Low
  TERMINAL_BW: 212.3 g
  APTT: 21.2 s
  Bas: 0%
  Eos: 0.6%
  Fbg: 307.6 mg/dL
  Hb: 13 g/dL
  Ht: 40.9%
  Lym: 80.6%
  MCHC: 31.8%
  MCV: 64.3 fL
  Mono: 2.4%
  Neu: 15.8%
  PT: 15.5 s
  Plat: 119.9 x10_4/uL
  RBC: 635.8 x10_4/ul
  Ret: 8.1%
  WBC: 80.4 x10_2/uL
  KIDNEY_L: 1 g
  KIDNEY_R: 1 g
  KIDNEY_TOTAL: 2 g
  LIVER: 9.3 g
  ALP: 1258.6 IU/L
  ALT: 40 IU/L
  AST: 71.2 IU/L
  BUN: 12.4 mg/dL
  CRE: 0.1 mg/dL
  Ca: 10.8 mg/dL
  Cl: 106.2 meq/L
  DBIL: 0 mg/dL
  GLC: 168.6 mg/dL
  IP: 9.5 mg/dL
  LDH: 161.8 IU/L
  Na: 140 meq/L
  PL: 132.2 mg/dL
  RALB: 3 g/dL
  TBIL: 0.008 mg/dL
  TC: 75 mg/dL
  TG: 75.8 mg/dL
  TP: 5.4 g/dL
  gamma-GTP: 1 IU/L
40 mg/kg, 9 h, dose level Low
  TERMINAL_BW: 203.3 g
  APTT: 21.6 s
  Bas: 0%
  Eos: 0.6%
  Fbg: 328.4 mg/dL
  Hb: 13 g/dL
  Ht: 40.3%
  Lym: 77.6%
  MCHC: 32.3%
  MCV: 64 fL
  Mono: 2%
  PT: 15.6 s
  Plat: 124.6 x10_4/uL
  RBC: 630.4 x10_4/ul
  Ret: 7.9%
  WBC: 88.7 x10_2/uL
  KIDNEY_L: 0.9 g
  KIDNEY_R: 1 g
  KIDNEY_TOTAL: 1.9 g
  LIVER: 8.7 g
  ALP: 1420.4 IU/L
  ALT: 34.2 IU/L
  AST: 68.6 IU/L
  BUN: 12.4 mg/dL
  CRE: 0.1 mg/dL
  Ca: 10.8 mg/dL
  Cl: 107.2 meq/L
  DBIL: 0 mg/dL
  GLC: 169.6 mg/dL
  IP: 9.5 mg/dL
  LDH: 151.6 IU/L
  Na: 140.8 meq/L
  PL: 129.4 mg/dL
  RALB: 3.1 g/dL
  TBIL: 0.008 mg/dL
  TC: 75.4 mg/dL
  TG: 58.2 mg/dL
  TP: 5.5 g/dL
  gamma-GTP: 1.2 IU/L
40 mg/kg, 24 h, dose level Low
  TERMINAL_BW: 217.8 g
  APTT: 22.7 s
  Bas: 0%
  Eos: 0.8%
  Fbg: 306 mg/dL
  Hb: 13.2 g/dL
  Ht: 40.2%
  Lym: 79.4%
  MCHC: 32.8%
  MCV: 64.5 fL
  Mono: 1.8%
  Neu: 17.2%
  PT: 15.3 s
  Plat: 115.3 x10_4/uL
  RBC: 623 x10_4/ul
  Ret: 7%
  WBC: 91.1 x10_2/uL
  KIDNEY_L: 0.9 g
  KIDNEY_R: 1 g
  KIDNEY_TOTAL: 1.9 g
  LIVER: 10.5 g
  ALP: 1700.4 IU/L
  ALT: 47.2 IU/L
  AST: 71.8 IU/L
  BUN: 15.4 mg/dL
  CRE: 0.1 mg/dL
  Ca: 10.6 mg/dL
  Cl: 105.6 meq/L
  DBIL: 0 mg/dL
  IP: 8 mg/dL
  LDH: 156.2 IU/L
  Na: 142.8 meq/L
  PL: 147 mg/dL
  RALB: 3 g/dL
  TBIL: 0.002 mg/dL
  TC: 76.4 mg/dL
  TG: 96 mg/dL
  TP: 5.4 g/dL
  gamma-GTP: 1.6 IU/L
[5]
  TERMINAL_BW: 205.2 g
  APTT: 23.3 s
